Data: patent US20090081786A1, “Peptide sequences for modulation of protein kinase C” (priority 2006, published 2009)

What was measured:
annexin V/δ-PKC complex = assay: co-immunoprecipitation of annexin V/δ-PKC complex from CHO cells; type: cell-based, hamster
Protocol: The complexes were immunoprecipitated with anti-δ-PKC antibodies and probed for the presence of annexin V at the combined molecular weight of about 110 kD.
CHO-K1 cells (available through the ATCC) were grown in F-12 (HAM) nutrient mixture supplemented with GLUTAMAX, 10% fetal bovine serum, and antibiotics (100 units/ml penicillin and […] streptomycin sulfate, all from Invitrogen Corp.). The cells were cultured at 37° C. under 5% CO2. At 48 hours prior to the study, the cells were serum starved. They were stimulated with 10 nM phorbol 12-myristate 13-acetate (PMA) (available through LC Laboratories) or with 5 mM H2O2 (available through Sigma Chemical Corp.) for the indicated duration ranging from about 30 seconds to about 5 minutes, a technique well-known to one of skill in the art. The cells were washed with cold PBS, and homogenized on ice with trituration in homogenization buffer (20 mM Tris pH 7.4, 2 mM EDTA, 10 mM EGTA, 0.25M sucrose, 12 mM β-mercaptoethanol, protease inhibitor cocktail (available through Sigma Chemical Corp)), 0.1% TRITON X-100, and 1% formaldehyde.
It was observed that the 0.1% TRITON extracts all of the translocatable PKC from the cell. After 30 min at 4° C., the lysates were quenched with 0.14M glycine for 20 min at 4° C., and the samples were spun at 14K rpm at 4° C. The supernatant was incubated with 1 μg anti-δ-PKC antibody (available through Santa Cruz Biotechnology) for 1 hour, followed by exposure to protein-G beads (available through Invitrogen Corp.) for 3 hours at 4° C. The beads were then washed with wash buffer (20 mM Tris pH 7.5, 2 mM EDTA, 100 mM NaCl, 12 mM β-mercaptoethanol, 0.1% TRITON), and separated on 7.5% SDS-PAGE, transferred to nitrocellulose, and probed with anti-annexin V (available through Santa Cruz Biotechnology), followed by visualization using an enhanced chemiluminescence (ECL) method.

δ-PKC [1] = assay: real-time confocal imaging of YFP-δPKC translocation in CHO cells; type: cell-based, hamster; details: 10 μM pretreatment for 30 minutes, 100 nM PMA, vs untreated
Protocol: CHO cells were grown on chambered #1 Borosilicate coverglass (Lab-Tek), transfected at 50% confluency using Fugene 6 (Roche), according to the manufacturer's instructions, with CFP-annexin V and YFP-δPKC cloned into the pECFP-C1 and pEYFP-C1 vectors, respectively (Clontech). The cells were serum starved for 24 hours. Real-time confocal imaging was conducted on a spinning disk Nipkow confocal microscope, and the cells were viewed using an inverted Olympus IX70 microscope with a 40× oil immersion Olympus objective (1.35 NA). Images were acquired using a CCD camera (Hamamatsu) with 2×2 pixel binning. […]
Fluorescence intensity was measured using METAMORPH data analysis software (Universal Imaging). To monitor the translocation of the PKC and the increases in FRET signal, a small region of interest was selected from each cell and fluorescence intensity values were graphed against time and normalized to the initial fluorescence. FRET was calculated using a formula that corrects for bleed-through and donor concentration: FRET=(I(442-530)-αI(442-480)-βI(515-530))/I(442-480). The α and β coefficients were calculated from singly transfected cells, where α=I(442-530)/I(442-480)=47.6% of CFP bleed-through into the YFP channel, and β=I(442-530)/I(515-530)=14.4% of YFP excitation from the CFP channel.

ε-PKC = assay: PMA-induced translocation of ε-PKC in CHO cells; type: cell-based, hamster; details: peptide pretreatment
Protocol: (§1) The CHO cells of Example 1 were fractionated, stimulated, and washed with cold PBS, scraped in homogenization buffer, and spun at 100,000 g for 30 min at 4° C., resulting in the soluble fraction. The pellet was then resuspended in a homogenization buffer with 1% TRITON X-100, and spun under the same conditions. Where applicable, the cells were pre-incubated with 1 μM peptide for 15 minutes prior to stimulation. The samples were then analyzed using a Western blot, and the loading was corrected for protein concentration using an internal control such as actin.

δ-PKC/annexin V = δ-PKC/annexin V binding ELISA assay
isolated rat hearts = assay: ex vivo model of ischemia and reperfusion in isolated rat hearts; details: 1 μM
Protocol: FIG. 6C compares the infarct sizes that were measured on both sides of the tissue slices and averaged. […] In FIG. 6D, creatine phosphokinase (CPK) release was measured in the heart perfusate during the reperfusion.

δ-PKC [2] = assay: PMA-induced translocation of δ-PKC from soluble to particulate fraction in CHO cells; type: cell-based, hamster; details: 1 μM peptide pretreatment, 5 minutes of PMA stimulation
Protocol: as §1

annexin V = target: T1, annexin V (Homo sapiens, UniProt P08758); assay: overlay binding assay on immobilized annexin V; details: immobilized annexin V on nitrocellulose, overlay 37° C. 30 min, Western blotting
T1 sequence (P08758 1-320): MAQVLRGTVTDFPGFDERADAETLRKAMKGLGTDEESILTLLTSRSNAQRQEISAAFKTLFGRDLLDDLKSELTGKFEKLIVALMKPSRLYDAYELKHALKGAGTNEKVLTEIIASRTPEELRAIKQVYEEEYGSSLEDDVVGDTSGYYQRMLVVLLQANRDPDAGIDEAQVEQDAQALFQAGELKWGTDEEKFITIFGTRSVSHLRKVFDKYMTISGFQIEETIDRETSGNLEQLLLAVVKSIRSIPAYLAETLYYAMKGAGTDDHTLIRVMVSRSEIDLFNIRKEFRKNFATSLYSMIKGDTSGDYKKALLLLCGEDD
Protocol: A binding assay was performed in vitro, using an immobilized annexin V with the δ-PKC, δ-V1 (SEQ ID NO:18) (the C2 domain of δ-PKC), δ-V5 (SEQ ID NO:19), and ε-V1 (SEQ ID NO:20) peptides. These domains are recognized in the art as participating in protein-protein interactions.
10 μg of the annexin V was separated on 12% SDS-PAGE gel and transferred to nitrocellulose, and then cut into strips. The strips were incubated with blocking buffer (50 mM Tris pH 7.5, 200 mM NaCl, 3% bovine serum albumin, 0.1% PEG20). The strips were then incubated in overlay buffer (50 mM Tris pH 7.5, 200 mM NaCl, 1% PEG20, 12 mM β-mercaptoethanol) in the presence where appropriate of 30 μg crude bacterial cell lysate containing fusion proteins of myelin basic protein (MBP)-delta V1 PKC (MBP-δV1), glutathione-S-transferase-delta V5 PKC (GST-δV5), and full length sequences of δ-PKC or rat purified ε-PKC (SEQ ID NO:21) at 37° C. for 30 min. The strips where then washed with wash buffer (50 mM Tris pH 7.5, 200 mM NaCl, 0.1% PEG20, 12 mM β-mercaptoethanol), and then incubated with fixative (0.2% formaldehyde in PBS) and neutralizing solution (0.2M glycine in PBS) at room temperature 20 min each. After washing with buffer, the strips were probed with antibodies according to the overlay protein, and resulting bands were visualized using ECL Western blotting.

OO [H2O2] was tested, and the “association between annexin V and δ-PKC” value (annexin V/δ-PKC complex; H2O2 5 mM, 0.5-1 minute treatment) was “transient association”.
For CCCCCCCCCCCCCC(=O)O[C@@H]1[C@@H](C)[C@@]2(O)[C@@H](C=C(CO)C[C@]3(O)C(=O)C(C)=C[C@@H]23)[C@@H]2C(C)(C)[C@]12OC(C)=O [PMA, phorbol 12-myristate 13-acetate], the “increase in the amount of annexin V/δ-PKC complex” value (annexin V/δ-PKC complex; 10 nm PMA, within the first 0.5 minutes of treatment) was ~4 fold.
In the case of COC(=O)Nc1nc2ccc(C(=O)c3cccs3)cc2[nH]1 [nocodazole], the “translocation profile of overexpressed δ-PKC” value (δ-PKC [1]) is reported as “did not alter the translocation profile”.
“EpAnxV: pAnxV in which the arginine in annexin V was replaced with the glutamate found in δ-PKC (SEQ ID NO:33) (YGRKKRRQRRRCCLQANEDPD; listed as Homo sapiens)” was tested, and the “PMA-induced translocation of ε-PKC” value (ε-PKC) was “neither peptide affected”, the “δ-PKC/annexin V binding in ELISA” value (δ-PKC/annexin V) was “no significant effect” and the “reduction of infarct size” value (isolated rat hearts; 10 minutes prior to 30-minute no-flow ischemia and 10 minutes at onset of 60 minutes reperfusion, TTC staining) was “had no effect”. For the same compound, the “reduction in necrosis (creatine phosphokinase release in heart perfusate)” value (isolated rat hearts; CPK measured during reperfusion) was “did not show any statistical difference from the control heart” and the “ischemia-induced δ-PKC-mediated damage to the heart” value (isolated rat hearts; isolated rat hearts) was “did not inhibit”.
With “LQANRDPD [pAnxV, annexin V-derived peptide, annexin V residues 157-164, conjugated to TAT47-57 carrier peptide]” the “δ-PKC/annexin V complex formation (immunoprecipitation)” value (annexin V/δ-PKC complex; peptide pretreatment) was “blocked”, the “PMA-induced translocation of δ-PKC to the particulate fraction” value (δ-PKC [2]) was “blocked” and the “PMA-induced translocation of ε-PKC” value (ε-PKC) was “neither peptide affected”. For the same compound, the “δ-PKC/annexin V binding in ELISA” value (δ-PKC/annexin V) was “inhibited”.
In the case of “δ-V5: V5 domain of δ-PKC (SEQ ID NO:19), used as glutathione-S-transferase fusion (PKVKSPSDYSNFDPEFLNEKPQLSFSDKNLIDSMDQEAFHGFSFVNPKFEQFLDI; left off: a dimerising Fc or GST)”, the “binding to annexin V” value (annexin V) is reported as “bind to the annexin V”.
